According to ChEMBL document CHEMBL6127034, “Design, synthesis and biological evaluation of a novel PAK1 degrader for the treatment of triple negative breast cancer” (Bioorg Med Chem, 2024):
The source made the active and inactive calls. The rule behind the calls is not given here.

What was measured:
MDA-MB-231 [1] = test: Antiproliferative activity against human MDA-MB-231 cells incubated for 48 hrs by MTT assay; assay type: functional, cell-based; details: MDA-MB-231, 48 h
[2] = target: T1, Protein cereblon/Serine/threonine-protein kinase PAK 1 (Homo sapiens) (UniProt Q13153+Q96SW2); test: PROTAC activity at CRBN/PAK1 in human MDA-MB-231 cells assessed as induction of protein degradation at 0.1 uM incubated for 48 hrs by Western blot analysis relative to control; assay type: cell-based
T1 sequence (Q13153 whole entry, looked up): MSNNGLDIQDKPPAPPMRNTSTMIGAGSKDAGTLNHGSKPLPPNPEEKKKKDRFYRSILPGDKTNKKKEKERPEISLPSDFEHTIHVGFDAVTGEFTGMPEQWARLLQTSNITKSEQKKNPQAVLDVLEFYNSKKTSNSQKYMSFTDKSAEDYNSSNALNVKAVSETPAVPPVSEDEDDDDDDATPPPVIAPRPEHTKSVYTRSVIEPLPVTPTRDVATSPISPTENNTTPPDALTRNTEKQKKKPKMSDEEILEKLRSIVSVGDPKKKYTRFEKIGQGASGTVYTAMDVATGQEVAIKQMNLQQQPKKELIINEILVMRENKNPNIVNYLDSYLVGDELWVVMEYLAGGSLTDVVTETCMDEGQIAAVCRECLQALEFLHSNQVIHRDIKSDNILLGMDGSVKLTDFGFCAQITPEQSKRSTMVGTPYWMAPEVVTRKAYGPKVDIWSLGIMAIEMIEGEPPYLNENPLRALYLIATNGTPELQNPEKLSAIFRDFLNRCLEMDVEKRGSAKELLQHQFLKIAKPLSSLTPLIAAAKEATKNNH
T1 sequence (Q96SW2 whole entry, looked up): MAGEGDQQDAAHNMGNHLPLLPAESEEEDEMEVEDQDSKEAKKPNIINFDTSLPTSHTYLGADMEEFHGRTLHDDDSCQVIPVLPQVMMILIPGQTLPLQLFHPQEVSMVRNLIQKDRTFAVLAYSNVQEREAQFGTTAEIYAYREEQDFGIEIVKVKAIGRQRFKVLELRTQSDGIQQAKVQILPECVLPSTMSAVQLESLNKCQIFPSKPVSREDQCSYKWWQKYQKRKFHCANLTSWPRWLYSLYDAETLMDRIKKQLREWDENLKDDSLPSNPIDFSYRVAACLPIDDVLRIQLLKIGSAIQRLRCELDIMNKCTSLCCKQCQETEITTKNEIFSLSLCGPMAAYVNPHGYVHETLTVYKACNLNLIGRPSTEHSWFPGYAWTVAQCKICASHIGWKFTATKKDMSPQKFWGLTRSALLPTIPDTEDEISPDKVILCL

[3] = target: T1, Protein cereblon/Serine/threonine-protein kinase PAK 1 (Homo sapiens); test: PROTAC activity at CRBN/PAK1 in human MDA-MB-231 cells assessed as fold change in protein expression at 2.5 uM incubated for 48 hrs by Western blot analysis relative to control; assay type: cell-based
[4] = target: T1, Protein cereblon/Serine/threonine-protein kinase PAK 1 (Homo sapiens); test: PROTAC activity at CRBN/PAK1 in human MDA-MB-231 cells assessed as induction of protein degradation at 2.5 uM incubated for 48 hrs by Western blot analysis relative to control; assay type: cell-based
[5] = target: T2, von Hippel-Lindau disease tumor suppressor/Serine/threonine-protein kinase PAK 1 (Homo sapiens, UniProt Q13153+P40337); test: PROTAC activity at VHL/PAK1 in human MDA-MB-231 cells assessed as fold change in protein expression at 2.5 uM incubated for 48 hrs by Western blot analysis relative to control; assay type: cell-based
T2 sequence (Q13153 2-545 limits assumed): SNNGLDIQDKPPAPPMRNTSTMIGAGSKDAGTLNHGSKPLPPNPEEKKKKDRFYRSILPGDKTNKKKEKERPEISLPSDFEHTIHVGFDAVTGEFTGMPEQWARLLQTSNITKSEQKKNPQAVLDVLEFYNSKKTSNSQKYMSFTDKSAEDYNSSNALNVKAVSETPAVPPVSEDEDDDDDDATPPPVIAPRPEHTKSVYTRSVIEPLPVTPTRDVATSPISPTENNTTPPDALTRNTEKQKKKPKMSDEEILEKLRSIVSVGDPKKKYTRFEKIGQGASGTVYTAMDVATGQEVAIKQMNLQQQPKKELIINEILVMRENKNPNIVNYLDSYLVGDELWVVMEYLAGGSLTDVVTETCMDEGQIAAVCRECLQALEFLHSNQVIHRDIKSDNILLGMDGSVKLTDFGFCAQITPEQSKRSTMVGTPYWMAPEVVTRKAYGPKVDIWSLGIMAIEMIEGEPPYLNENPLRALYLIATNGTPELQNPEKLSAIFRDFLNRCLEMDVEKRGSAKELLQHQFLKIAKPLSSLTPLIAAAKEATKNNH
T2 sequence (P40337 whole entry partner): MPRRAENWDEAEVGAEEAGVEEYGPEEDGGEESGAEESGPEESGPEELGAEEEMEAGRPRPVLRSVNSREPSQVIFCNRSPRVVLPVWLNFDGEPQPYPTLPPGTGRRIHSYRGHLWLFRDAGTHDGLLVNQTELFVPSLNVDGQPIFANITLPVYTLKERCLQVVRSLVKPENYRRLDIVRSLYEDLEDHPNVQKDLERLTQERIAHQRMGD

[6] = target: T2, von Hippel-Lindau disease tumor suppressor/Serine/threonine-protein kinase PAK 1; test: PROTAC activity at VHL/PAK1 in human MDA-MB-231 cells assessed as induction of protein degradation at 0.1 uM incubated for 48 hrs by Western blot analysis relative to control; assay type: cell-based
[7] = target: T2, von Hippel-Lindau disease tumor suppressor/Serine/threonine-protein kinase PAK 1; test: PROTAC activity at VHL/PAK1 in human MDA-MB-231 cells assessed as induction of protein degradation at 2.5 uM incubated for 48 hrs by Western blot analysis relative to control; assay type: cell-based
MDA-MB-231 [8] = test: Inhibition of 3D-spherioid formation of human MDA-MB-231 cells at 2.5 uM by crystal violet staining based colony formation assay; assay type: functional, cell-based
MDA-MB-231 [9] = test: Induction of apoptosis in human MDA-MB-231 cells assessed as late apoptotic cells at 2.5 uM incubated for 12 to 48 hrs by Annexin V-FITC/PI staining based flow cytometry (reference value: 1.48 %); assay type: functional; details: time 12-48 hrs
MDA-MB-231 [10] = test: Inhibition of cell proliferation of human MDA-MB-231 cells assessed as decrease in Ki-67 expression at 2.5 uM incubated for 24 hrs by immunofluorescence based analysis; assay type: functional
MDA-MB-231 [11] = test: Induction of apoptosis in human MDA-MB-231 cells assessed as necrotic cells at 2.5 uM incubated for 12 to 48 hrs by Annexin V-FITC/PI staining based flow cytometry (reference value: 0.43 %); assay type: functional; details: time 12-48 hrs
MDA-MB-231 [12] = test: Inhibition of cell proliferation of human MDA-MB-231 cells at 2.5 uM by EdU staining based analysis; assay type: functional
MDA-MB-231 [13] = test: Inhibition of cell migration in human MDA-MB-231 cells at 2.5 uM incubated for 24 hrs by transwell assay; assay type: functional, cell-based
MDA-MB-231 [14] = test: Induction of apoptosis in human MDA-MB-231 cells assessed as viable cells at 2.5 uM incubated for 12 to 48 hrs by Annexin V-FITC/PI staining based flow cytometry (reference value: 97.0 %); assay type: functional; details: time 12-48 hrs, read-out: Activity
MDA-MB-231 [15] = test: Induction of apoptosis in human MDA-MB-231 cells assessed as early apoptotic cells at 2.5 uM incubated for 12 to 48 hrs by Annexin V-FITC/PI staining based flow cytometry (reference value: 1.12 %); assay type: functional; details: time 12-48 hrs
MDA-MB-231 [16] = test: Inhibition of cell proliferation of human MDA-MB-231 cells at 2.5 uM by crystal violet staining based colony formation assay; assay type: functional
MDA-MB-231 [17] = test: Inhibition of cell migration in human MDA-MB-231 cells at 2.5 uM incubated upto 48 hrs by wound healing assay; assay type: functional, cell-based
[18] = target: Serine/threonine-protein kinase PAK 1 (Homo sapiens, UniProt Q13153); test: Inhibition of PAK1 (unknown origin)
Chain of Serine/threonine-protein kinase PAK 1 (Q13153 whole entry): as the sequence (Q13153 whole entry, looked up) above

MDA-MB-231 [19] = test: Antiproliferative activity against human MDA-MB-231 cells; assay type: functional, cell-based

O=C1CCC(N2C(=O)c3cccc(NCc4cn(CCCCCCCn5c(=O)c(-c6ccc(Cl)cc6Cl)cc6cnc(NC7CC7)nc65)nn4)c3C2=O)C(=O)N1 (configuration not stated)
IC50 (MDA-MB-231 [1]): 7.35 µM | Activity [2]: 18.3% | fold change (FC) [3]: 0.44 | Activity [4]: 56.1%

CNc1ncc2cc(-c3ccc(Cl)cc3Cl)c(=O)n(CCCCCCCn3cc(CNc4cccc5c4C(=O)N(C4CCC(=O)NC4=O)C5=O)nn3)c2n1 (configuration not stated)
IC50 (MDA-MB-231 [1]): 18.9 µM | Activity [2]: 23.1% | fold change (FC) [3]: 0.545 | Activity [4]: 45.5%

Cc1ncsc1-c1ccc([C@H](C)NC(=O)[C@@H]2C[C@@H](O)CN2C(=O)[C@@H](NC(=O)CCCc2cn(CCCCCCCn3c(=O)c(-c4ccc(Cl)cc4Cl)cc4cnc(NC5CC5)nc43)nn2)C(C)(C)C)cc1
fold change (FC) [5]: 0.318 | Activity [6]: 41% | Activity [7]: 68.2% | IC50 (MDA-MB-231 [1]): 2.01 µM

Cc1ncsc1-c1ccc([C@H](C)NC(=O)[C@@H]2C[C@@H](O)CN2C(=O)[C@@H](NC(=O)CCc2cn(CCCCCCn3c(=O)c(-c4ccc(Cl)cc4Cl)cc4cnc(NC5CC5)nc43)nn2)C(C)(C)C)cc1
fold change (FC) [5]: 0.329 | Activity [6]: 39.1% | Activity [7]: 67.1% | IC50 (MDA-MB-231 [1]): 3.78 µM

CNc1ncc2cc(-c3ccc(Cl)cc3Cl)c(=O)n(CCCCCCn3cc(CNc4cccc5c4C(=O)N(C4CCC(=O)NC4=O)C5=O)nn3)c2n1 (configuration not stated)
IC50 (MDA-MB-231 [1]): 25.8 µM | Activity [2]: 15.3% | fold change (FC) [3]: 0.653 | Activity [4]: 41.7%

Cc1ncsc1-c1ccc([C@H](C)NC(=O)[C@@H]2C[C@@H](O)CN2C(=O)[C@@H](NC(=O)CCCCc2cn(CCCCCn3c(=O)c(-c4ccc(Cl)cc4Cl)cc4cnc(NC5CC5)nc43)nn2)C(C)(C)C)cc1
fold change (FC) [5]: 0.43 | Activity [6]: 27.4% | Activity [7]: 57% | IC50 (MDA-MB-231 [1]): 5.47 µM

CCn1c(=O)c(-c2ccc(-c3cncs3)cc2Cl)cc2cnc(Nc3ccc(N4CCN(C)CC4)cc3)nc21
inhibition (MDA-MB-231 [8]): Active | Activity (MDA-MB-231 [9]): 1.08% | inhibition (MDA-MB-231 [10]): Active | Activity (MDA-MB-231 [11]): 0.058% | inhibition (MDA-MB-231 [12]): Active | inhibition (MDA-MB-231 [13]): Active | IC50 (MDA-MB-231 [1]): 3.23 µM | viability at 2.5 µM (MDA-MB-231 [14]): 97.2% | Activity (MDA-MB-231 [15]): 1.67% | inhibition (MDA-MB-231 [16]): Active | inhibition (MDA-MB-231 [17]): inactive

Cc1ncsc1-c1ccc([C@H](C)NC(=O)[C@@H]2C[C@@H](O)CN2C(=O)[C@@H](NC(=O)CCCc2cn(CCCCCn3c(=O)c(-c4ccc(Cl)cc4Cl)cc4cnc(NC5CC5)nc43)nn2)C(C)(C)C)cc1
fold change (FC) [5]: 0.545 | Activity [6]: 11.9% | Activity [7]: 45.5% | IC50 (MDA-MB-231 [1]): 16.3 µM

CNc1ncc2cc(-c3ccc(Cl)cc3Cl)c(=O)[nH]c2n1
IC50 [18]: 0.052 µM | IC50 (MDA-MB-231 [19]): 28.6 µM | IC50 (MDA-MB-231 [1]): 28.6 µM
